Laboratory results reported in patent US5317022A, “Pharmaceutical composition and use” (priority 1991, dated 1994).
Counter-ions that a name gives are not always drawn. Like-named read-outs stand apart in the source and are kept apart here.

What was measured:
[1] = test system: rat; test: analgetic effect, hot plate (rat); type: in vivo
[2] = test system: rat; test: analgetic effect, tail flick (rat); type: in vivo
[3] = test system: rat; test: animal or person; conditions: read-out: algolyt. test (rat) 100% activity
[4] = biological target: (^3 H)naloxone binding sites; test: competition binding assay with (3H)naloxone on rat brain membranes; conditions: membranes incubated with (3H)naloxone 1 nM and increasing ligand concentrations; read-out: Affinity constants (Ki nM) in competition assays
Procedure: (§1) Membrane preparation: A crude membrane fraction from rat brain (PVG/C strain) was prepared [Mol. Pharm.11 (1975) 340-351 and the protein content was defined [Anal. Biochem. 72(1976) 248-254).
(§2) The membrane suspension (200-400 μg protein) was incubated with the specific radioligand for 1 hour on ice. Incubations were terminated by rapid filtration under vacuo followed by washing with ice cold tris HCl buffer (50 mM, pH 7,4). Radioactivity was measured in a toluene based scintillation mixture on a LKB Minibeta Liquid Scintillation Spectrophotometer. Nonspecific binding was defined in the presence of 10 μM unlabeled naloxone. All assays were performed in triplicate and repeated several times. Ki values were determined from equilibrium experiments and calculated with the Tshang-Prusov equation. The data were evaluated using the Ligand program [Anal. Biol. Chem. 107 (1980) 220-239](Data shown on Table III/1).

[5] = test system: mice; test: analgetic effect, writhing test (mice); type: in vivo
[6] = test system: rats; test: sedative (narcosis potentiating) effect, Inactine base narcotic, rats; type: in vivo
Procedure: Inactine (35 mg/kg) was used as a base narcotic.
*ED500 % = dose increasing narcosis to five times the control.

[7] = test system: rabbits; test: effects on respiration on conscious rabbits (III.5, Marey-drum)
Procedure: Investigation was carried out on conscious rabbits of both sexes and of 3-4 kg weight by way of a Marey-drum. Frequency and amplitude of respiration were quantitatively evaluated.

[8] = biological target: (^3 H)naloxone binding sites; test: wash-resistant binding of (3H)naloxone, rat brain membranes; conditions: preincubated with (3H)naloxone 1 nM and test compound; remaining specific binding after several washings; average of 2-4 data; compound.HCl; read-out: Ki (nM), affinity constants
Procedure: as §1, §2
After preincubation a thorough washing was performed. [Life Sci. 32 (1983) 2777-2784]. Control values are represented by the specific binding of (3H)naloxone to membranes preincubated with a buffer and treated in the same way. Heterologous displacement experiments were used to evaluate the affinity of the investigated compounds for (^3 H)naloxone binding sites.

[9] = test system: rabbits; test: effect on respiration on conscious rabbits (III.6, type A/B/C tests); type: in vivo; design: resp. change ampl.: unit not given here
Procedure: The method as described above in Example III.5 was used on conscious rabbits of 2,5-3 kg weight. Registration was continued for 3-4 hours. The samples were injected under the skin of the neck and the respiration parameters were registered at intervals of 10 minutes.

[10] = Rattus norvegicus; read-out: hot plate (rat) ED50
[11] = Rattus norvegicus; read-out: tail flick (rat) ED50
[12] = OX 0.5 mg/kg s.c. + naloxone 0.25 mg/kg, 10 min
[13] = OX 0.5 mg/kg s.c., 10 min (line before naloxone)
[14] = type A: OX 0.1 mg/kg s.c. +5 mg/kg morphine, 30 min
[15] = type A: OX 0.1 mg/kg s.c. +5 mg/kg morphine, 40 min
[16] = type A: OX 0.1 mg/kg s.c., 10 min

COc1ccc2c3c1O[C@H]1C(=NNC(N)=S)CC[C@@]4(O)[C@@H](C2)N(C)CC[C@]314 [Oxycodone-thiosemicarbazone.HCl, Oxycodone-thiosemicarbazone]
ED50 [1, 10]: 8.5 mg/kg
ED50 [2, 11]: 4.5 mg/kg
ED100 [3]: 100 mg/kg

CN1CC[C@]23c4c5ccc(O)c4O[C@H]2C(=NO)CC[C@H]3[C@H]1C5 [dihydromorphinone oxime]
Ki [4]: 2 nM

COc1ccc2c3c1O[C@H]1C(=O)CC[C@H]4[C@@H](C2)N(C)CC[C@]314 [Dihydrocodeinone, reference compound]
ED50 [1, 10]: 2.2 mg/kg
ED50 [2, 11]: 0.98 mg/kg
ED50 ([5]; Mus musculus; read-out: writhing test (mice) ED50): 0.9 mg/kg
ED500 % (dose increasing narcosis to five times the control) ([6]; s.c. on rats, Inactine 35 mg/kg, dose as base): 1,9 mg/kg
respiration effect ([7]; 10-5500 μg/kg i.v., s.c.): depression
respiration frequency/min. ([7]; 10-5500 μg/kg i.v., s.c.): .dwnarw.
respiration volume ([7]; 10-5500 μg/kg i.v., s.c.): .dwnarw.
influence on the respiratory depression effect of morphine (in words) ([7]; rabbit, in vivo): unambiguously potentiate the respiratory depression effect of morphine
respiratory depression by the compound alone (in words) ([7]; rabbit, in vivo, sc): cause respiratory depression
ED100 [3]: 4.9 mg/kg

CN1CC[C@]23c4c5ccc(O)c4O[C@H]2C(=NN)CC[C@@]3(O)[C@H]1C5 [oxymorphone hydrazone]
Ki [4]: 2 nM

CN1CC[C@]23c4c5ccc(O)c4O[C@H]2C(=NNC(N)=O)CC[C@@]3(O)[C@H]1C5 [oxymorphone semicarbazone]
Ki [4]: 4 nM

CN1CC[C@]23c4c5ccc(O)c4O[C@H]2C(=NO)CC[C@@]3(O)[C@H]1C5 [oxymorphone oxime]
Ki [4]: 2 nM

COc1ccc2c3c1O[C@H]1C(=NO)CC[C@@]4(O)[C@@H](C2)N(C)CC[C@]314 [Oxycodone-oxime, 14-HYDROXY-DIHYDROCODEINONE-OXIME]
Ki [4]: 32 nM
Ki [8]: 32 nM
ED50 ([1]; Rattus norvegicus, read-out: hot plate (rat) ED50): 1.8 mg/kg
ED50 ([2]; Rattus norvegicus, read-out: tail flick (rat) ED50): 1 mg/kg
ED50 ([5]; Mus musculus, read-out: writhing test (mice) ED50): 0.11 mg/kg
ED500 % (dose increasing narcosis to five times the control) ([6]; rat, in vivo): 0,5 mg/kg
potentiation of Inactine narcosis (in words) ([6]; rat, in vivo): most effectively prolongated
resp. change ampl. ([9]; OX 0.005 mg/kg s.c., 30 min): +30
resp. change fr/min ([9]; OX 0.005 mg/kg s.c., 30 min): +30
resp. change ampl. ([9]; OX 0.025 mg/kg s.c., 30 min): 0
resp. change fr/min ([9]; OX 0.025 mg/kg s.c., 30 min): +28
resp. change ampl. ([9]; OX 0.1 mg/kg s.c., 30 min): +40
resp. change fr/min ([9]; OX 0.1 mg/kg s.c., 30 min): +47
resp. change ampl. [9, 12]: +50
resp. change fr/min [9, 12]: +50
resp. change ampl. [9, 13]: -50
resp. change fr/min [9, 13]: -50
respiration number (in words) ([9]; small doses): considerably increase the respiration number
resp. change ampl. [9, 14]: 0
resp. change fr/min [9, 14]: +71
resp. change ampl. [9, 15]: -40
resp. change fr/min [9, 15]: -29
resp. change ampl. [9, 16]: +20
resp. change fr/min [9, 16]: +57
ED100 [3]: 10 mg/kg

CN1CC[C@]23c4c5ccc(O)c4O[C@H]2C(=NNC(N)=O)CC[C@H]3[C@H]1C5 [dihydromorphinone semicarbazone]
Ki [4]: 3 nM
